From patent publication US8034314B2, “Photoreactive compound specifically binding to calcium binding proteins” (priority 2004, dated 2011)

Experiments:
[1] = test system: mitochondrial uniporter (Ca2+ uptake in mitochondria); assay: Ca2+ uptake/accumulation in isolated mitochondria; format: biochemical, rat; settings: no UV; mean ± SEM of 3 to 5 experiments
Procedure: (§1) Sarcoplasmic reticulum (SR) membranes were prepared from rabbit fast twitch skeletal muscle as described by Saito [Saito et al.: J. Cell Biol. 99 (1984) 875-85]. Mitochondria were isolated from rat liver as described by us previously [Gincel D. et al.: Biochem J. 358 (2001) 147-55]. VDAC was purified by a method developed in our laboratory, using columns of hydroxyapatite and reactive red agarose [Gincel D. et al.: J. Bioenerget. Biomembr. 32 (2000) 571-83].
Ca^2+-accumulation in freshly prepared mitochondria (0.5 mg/ml) was assayed for 1 to 20 minutes at 30° C. in the presence of 225 mM mannitol, 75 mM sucrose, 120 μM CaCl2 (containing 3×10^4 cpm/nmol ^45Ca^2+), 5 mM HEPES/KOH pH 7.0, and 5 mM succinate with 0.1 mM Pi, or 4 mM MgCl2 with 3 mM ATP. The Ca^2+-uptake was terminated by rapid Millipore filtration, followed by a wash with 5 ml of 0.15 M KCl. The Ca^2+-accumulation in SR was determined as described previously [Shoshan-Barmatz V. & Shaineberg A.: Biochim. Biophys. Acta 1065 (1991) 82-8]. Electron transport from succinate to cytochrome c was described in above cited article [Gincel D. et al.: J. Bioenerget. Biomembr. 32 (2000) 571-83].
The effect of AzRu on mitochondrial process of electron transport from the donor succinate to the acceptor cytochrome c was characterized as described above. Although said electron transfer involves several dozens electron transfer carriers, this reaction was not affected by azido-ruthenium of this invention.
(§2) The hexavalent RuR and the trivalent Ru360 have been employed in various studies as inhibitors of Ca^2+-dependent reactions. As shown here, even with no photoactivation, AzRu, in contrast to RuR and Ru360, was effective in inhibiting the SR Ca^2+-pump (Table 3). […] This may open the way to inhibit other Ca^2+-dependent activities that are not sensitive to RuR, such as the plasma membrane Ca^2+-ATPase. […] RuR was employed to improve mitochondrial production in ischemic reperfused pig myocardium, was employed in the nervous system to follow neuronal death progress and can act as an anti-oxidant in certain conditions. Considering the potent activity of AzRu in RuR-insensitive reactions (see Table 3), its applications in various biological studies should be explored. Ca^2+ accumulation in SR and mitochondria was assayed as described above in the absence and presence of different concentrations of RuR (0.05-100 μM), Ru360 (0.01-100 μM) or AzRu (0.1-100 μM). The concentration required for 50% inhibition (IC50) was derived from the plot of Ca^2+ accumulation activity or ryanodine binding as a function of the reagent concentration. The results are the mean±SEM of 3 to 5 experiments (Table 3).

[2] = target: T1, ryanodine receptor (RyR) / Ca2+-release channel (Oryctolagus cuniculus, UniProt P11716); assay: [3H]ryanodine binding to SR membranes; design: species or system rabbit; settings: no UV; mean ± SEM of 3 to 5 experiments
T1 construct: from tissue; host or cells: rabbit fast twitch skeletal muscle SR membranes
Procedure: as §1
For the determination of [^3H]ryanodine binding, SR membranes were incubated for 20-60 min at 37° C. in a standard binding solution containing 1M NaCl, 20 mM MOPS (pH 7.4), 50 μM free Ca^2+ and 20 nM [^3H]ryanodine. Unbound ryanodine was separated from protein-bound ryanodine by vacuum filtration of the sample through nitrocellulose filters (0.45 μm), followed by two washes with 4 ml ice-cold buffer containing 0.2 M NaCl, 10 mM MOPS (pH 7.4) and 50 μM CaCl2. The retained radioactivity in the dried filters was determined by liquid scintillation counting. Specific binding of [^3H]ryanodine was defined as the difference between the binding in the presence of 20 nM [^3H]ryanodine and in the presence of 20 μM unlabeled ryanodine.
as §2

T1 sequence (P11716 whole entry): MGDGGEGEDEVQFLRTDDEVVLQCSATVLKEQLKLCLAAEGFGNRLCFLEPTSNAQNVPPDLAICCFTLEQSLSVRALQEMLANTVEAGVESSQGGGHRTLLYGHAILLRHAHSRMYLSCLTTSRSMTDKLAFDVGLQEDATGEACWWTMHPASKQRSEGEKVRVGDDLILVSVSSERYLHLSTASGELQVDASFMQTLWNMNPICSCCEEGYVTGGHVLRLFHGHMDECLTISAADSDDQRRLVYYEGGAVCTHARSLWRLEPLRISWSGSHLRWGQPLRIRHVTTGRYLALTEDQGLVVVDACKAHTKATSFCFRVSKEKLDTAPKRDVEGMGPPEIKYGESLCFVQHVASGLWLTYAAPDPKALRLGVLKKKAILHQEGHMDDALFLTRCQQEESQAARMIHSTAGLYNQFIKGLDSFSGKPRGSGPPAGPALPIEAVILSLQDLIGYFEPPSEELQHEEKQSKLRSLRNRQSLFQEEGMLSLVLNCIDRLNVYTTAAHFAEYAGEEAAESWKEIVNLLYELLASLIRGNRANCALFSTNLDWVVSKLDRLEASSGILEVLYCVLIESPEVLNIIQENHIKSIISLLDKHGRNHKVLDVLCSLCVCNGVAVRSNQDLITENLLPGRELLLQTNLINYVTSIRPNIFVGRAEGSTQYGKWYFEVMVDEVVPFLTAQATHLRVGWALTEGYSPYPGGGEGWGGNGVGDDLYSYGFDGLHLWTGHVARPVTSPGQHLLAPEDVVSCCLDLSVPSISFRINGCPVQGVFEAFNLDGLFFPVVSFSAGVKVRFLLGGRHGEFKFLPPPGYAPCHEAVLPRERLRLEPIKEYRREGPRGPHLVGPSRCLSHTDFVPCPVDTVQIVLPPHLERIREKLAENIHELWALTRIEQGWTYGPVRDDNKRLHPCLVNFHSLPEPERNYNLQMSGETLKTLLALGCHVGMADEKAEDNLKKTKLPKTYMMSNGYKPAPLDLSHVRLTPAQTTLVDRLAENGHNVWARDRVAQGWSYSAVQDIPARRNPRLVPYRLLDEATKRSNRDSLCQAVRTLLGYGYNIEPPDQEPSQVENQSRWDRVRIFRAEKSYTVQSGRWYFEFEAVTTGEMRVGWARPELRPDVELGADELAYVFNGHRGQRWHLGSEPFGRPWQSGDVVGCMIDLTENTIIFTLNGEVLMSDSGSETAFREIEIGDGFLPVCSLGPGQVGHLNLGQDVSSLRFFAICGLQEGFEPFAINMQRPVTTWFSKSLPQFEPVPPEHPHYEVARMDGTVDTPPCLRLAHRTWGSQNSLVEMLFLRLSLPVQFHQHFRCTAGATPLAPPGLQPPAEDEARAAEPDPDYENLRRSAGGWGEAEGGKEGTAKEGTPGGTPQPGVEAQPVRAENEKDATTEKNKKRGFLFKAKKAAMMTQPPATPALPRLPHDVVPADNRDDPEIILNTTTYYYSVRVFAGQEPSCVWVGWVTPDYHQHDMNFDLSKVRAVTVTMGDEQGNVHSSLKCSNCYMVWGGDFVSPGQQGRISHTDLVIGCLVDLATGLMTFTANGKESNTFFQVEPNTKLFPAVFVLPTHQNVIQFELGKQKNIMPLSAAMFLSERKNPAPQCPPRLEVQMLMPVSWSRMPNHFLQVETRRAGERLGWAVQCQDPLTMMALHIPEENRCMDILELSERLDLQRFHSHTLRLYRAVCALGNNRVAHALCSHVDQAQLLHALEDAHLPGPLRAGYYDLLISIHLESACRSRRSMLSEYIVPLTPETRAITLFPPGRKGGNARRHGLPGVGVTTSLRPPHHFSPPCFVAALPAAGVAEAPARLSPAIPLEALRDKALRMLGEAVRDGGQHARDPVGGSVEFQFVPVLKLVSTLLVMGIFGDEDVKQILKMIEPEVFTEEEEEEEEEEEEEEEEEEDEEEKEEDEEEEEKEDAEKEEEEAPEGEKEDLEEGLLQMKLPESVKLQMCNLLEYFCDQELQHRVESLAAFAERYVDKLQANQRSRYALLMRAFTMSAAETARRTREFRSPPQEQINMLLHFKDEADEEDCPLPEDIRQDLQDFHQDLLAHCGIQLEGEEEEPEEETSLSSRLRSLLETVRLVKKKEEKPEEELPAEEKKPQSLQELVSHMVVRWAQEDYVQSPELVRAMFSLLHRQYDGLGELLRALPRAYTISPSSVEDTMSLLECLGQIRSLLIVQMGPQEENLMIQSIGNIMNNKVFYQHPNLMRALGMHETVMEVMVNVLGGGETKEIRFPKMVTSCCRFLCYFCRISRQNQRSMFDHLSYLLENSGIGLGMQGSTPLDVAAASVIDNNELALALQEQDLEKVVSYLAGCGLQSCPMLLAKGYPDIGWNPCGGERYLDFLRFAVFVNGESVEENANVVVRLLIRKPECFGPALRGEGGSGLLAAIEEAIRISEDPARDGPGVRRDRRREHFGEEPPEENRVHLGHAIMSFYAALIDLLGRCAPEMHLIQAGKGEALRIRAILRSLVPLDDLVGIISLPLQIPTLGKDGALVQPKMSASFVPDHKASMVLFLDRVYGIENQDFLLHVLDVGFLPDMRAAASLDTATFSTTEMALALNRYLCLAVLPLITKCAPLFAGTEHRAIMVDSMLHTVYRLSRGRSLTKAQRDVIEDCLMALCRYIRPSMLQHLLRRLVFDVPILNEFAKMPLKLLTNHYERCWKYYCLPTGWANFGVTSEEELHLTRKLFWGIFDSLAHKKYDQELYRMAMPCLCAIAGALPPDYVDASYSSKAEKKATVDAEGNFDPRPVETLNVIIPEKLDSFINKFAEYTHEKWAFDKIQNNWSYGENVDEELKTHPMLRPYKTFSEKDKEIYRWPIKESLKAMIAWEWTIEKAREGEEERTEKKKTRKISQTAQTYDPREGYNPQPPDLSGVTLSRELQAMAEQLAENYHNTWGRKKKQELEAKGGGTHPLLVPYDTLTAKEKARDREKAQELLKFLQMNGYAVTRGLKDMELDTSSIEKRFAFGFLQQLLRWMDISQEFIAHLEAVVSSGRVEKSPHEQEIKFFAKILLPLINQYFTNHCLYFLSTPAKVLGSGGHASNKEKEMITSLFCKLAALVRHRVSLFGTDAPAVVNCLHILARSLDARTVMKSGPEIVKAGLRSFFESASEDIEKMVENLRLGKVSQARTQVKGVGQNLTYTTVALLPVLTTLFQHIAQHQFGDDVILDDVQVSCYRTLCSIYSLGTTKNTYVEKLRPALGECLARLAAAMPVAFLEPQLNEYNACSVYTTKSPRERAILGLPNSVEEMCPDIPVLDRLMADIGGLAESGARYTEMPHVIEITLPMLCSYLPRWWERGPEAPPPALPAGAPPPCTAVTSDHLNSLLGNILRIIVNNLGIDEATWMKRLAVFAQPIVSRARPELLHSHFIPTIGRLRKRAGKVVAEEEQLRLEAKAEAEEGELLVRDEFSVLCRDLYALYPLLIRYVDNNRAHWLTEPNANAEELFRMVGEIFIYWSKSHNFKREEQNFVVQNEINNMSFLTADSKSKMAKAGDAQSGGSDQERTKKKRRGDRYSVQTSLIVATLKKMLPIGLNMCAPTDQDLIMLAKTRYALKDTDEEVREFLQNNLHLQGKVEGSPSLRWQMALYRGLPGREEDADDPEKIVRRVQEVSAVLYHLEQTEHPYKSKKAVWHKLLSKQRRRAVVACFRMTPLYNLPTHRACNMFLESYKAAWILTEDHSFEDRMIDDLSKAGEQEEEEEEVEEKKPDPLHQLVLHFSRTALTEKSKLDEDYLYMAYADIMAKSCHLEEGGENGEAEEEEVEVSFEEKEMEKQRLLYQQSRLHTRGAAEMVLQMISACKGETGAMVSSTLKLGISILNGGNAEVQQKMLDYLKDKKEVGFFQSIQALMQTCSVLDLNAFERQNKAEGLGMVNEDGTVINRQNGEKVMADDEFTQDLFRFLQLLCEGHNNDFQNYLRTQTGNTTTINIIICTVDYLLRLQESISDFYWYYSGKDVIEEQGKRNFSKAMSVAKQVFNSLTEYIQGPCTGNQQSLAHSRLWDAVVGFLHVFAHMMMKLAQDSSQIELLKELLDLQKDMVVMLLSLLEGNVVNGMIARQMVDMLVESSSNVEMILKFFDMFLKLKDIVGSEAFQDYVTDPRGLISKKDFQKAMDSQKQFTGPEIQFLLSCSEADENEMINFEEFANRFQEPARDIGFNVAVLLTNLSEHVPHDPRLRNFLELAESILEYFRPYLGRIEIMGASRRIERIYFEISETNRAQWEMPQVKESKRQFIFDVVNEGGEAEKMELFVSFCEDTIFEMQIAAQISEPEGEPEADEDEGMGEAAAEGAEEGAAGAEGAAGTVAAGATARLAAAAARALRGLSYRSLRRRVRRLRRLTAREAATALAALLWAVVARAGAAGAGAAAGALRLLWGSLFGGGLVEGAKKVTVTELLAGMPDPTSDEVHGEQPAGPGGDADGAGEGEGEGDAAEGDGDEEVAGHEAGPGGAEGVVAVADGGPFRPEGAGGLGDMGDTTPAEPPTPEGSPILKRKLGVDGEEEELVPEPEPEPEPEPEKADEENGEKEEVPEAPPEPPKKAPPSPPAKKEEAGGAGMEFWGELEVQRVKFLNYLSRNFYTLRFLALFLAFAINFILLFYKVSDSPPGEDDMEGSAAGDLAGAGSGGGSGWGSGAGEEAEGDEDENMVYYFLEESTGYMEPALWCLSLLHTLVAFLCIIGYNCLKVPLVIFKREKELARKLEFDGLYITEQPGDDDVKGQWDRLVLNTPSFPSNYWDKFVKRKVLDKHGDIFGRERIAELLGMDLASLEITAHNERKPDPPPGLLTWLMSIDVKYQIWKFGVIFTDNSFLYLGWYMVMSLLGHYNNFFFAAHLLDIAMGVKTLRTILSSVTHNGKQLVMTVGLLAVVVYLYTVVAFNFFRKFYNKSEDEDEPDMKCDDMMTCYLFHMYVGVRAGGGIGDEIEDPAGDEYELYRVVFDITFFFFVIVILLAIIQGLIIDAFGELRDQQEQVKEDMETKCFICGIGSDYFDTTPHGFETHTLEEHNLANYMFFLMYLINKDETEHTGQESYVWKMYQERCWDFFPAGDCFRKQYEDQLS

IC50 [1]: 0.067 ± 0.008 µM | IC50 [2]: 14.8 ± 2.8 µM
Substance: Ru360 [reference compound]
